Data set [1] in a line: Membrane permeabilizing activity of the compound in calcein-loaded egg phosphatidylcholine liposomes assessed as release of calcein from liposomes at pH 6.8 after 10 mins by fluorescence assay. The data set is classed as ADME, Microsome.
The target in data set [2] is T1, Prostaglandin G/H synthase 1 (Ovis aries, UniProt P05979).
T1 sequence (P05979 whole entry): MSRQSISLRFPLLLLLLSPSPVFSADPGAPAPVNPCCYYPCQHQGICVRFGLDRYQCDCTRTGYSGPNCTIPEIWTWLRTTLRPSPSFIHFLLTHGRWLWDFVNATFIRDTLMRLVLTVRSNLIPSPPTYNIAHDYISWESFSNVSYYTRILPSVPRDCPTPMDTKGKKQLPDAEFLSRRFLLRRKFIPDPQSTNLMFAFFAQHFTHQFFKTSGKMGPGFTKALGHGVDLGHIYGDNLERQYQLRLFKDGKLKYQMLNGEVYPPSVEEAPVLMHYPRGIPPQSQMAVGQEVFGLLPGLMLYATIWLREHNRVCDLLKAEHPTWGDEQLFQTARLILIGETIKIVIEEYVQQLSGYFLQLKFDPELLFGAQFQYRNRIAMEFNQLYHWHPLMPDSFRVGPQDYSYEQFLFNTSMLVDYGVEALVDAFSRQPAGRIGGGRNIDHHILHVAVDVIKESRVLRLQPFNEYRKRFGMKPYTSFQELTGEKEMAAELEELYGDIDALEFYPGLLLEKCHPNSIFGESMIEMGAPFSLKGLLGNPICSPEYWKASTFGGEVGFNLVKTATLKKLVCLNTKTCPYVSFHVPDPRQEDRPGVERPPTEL
The data set can be described thus: Inhibition of purified ovine COX-1 by enzyme immunoassay.

In data set [3] the target is T2, Prostaglandin G/H synthase 2 (Homo sapiens, UniProt P35354).
T2 sequence (P35354 whole entry): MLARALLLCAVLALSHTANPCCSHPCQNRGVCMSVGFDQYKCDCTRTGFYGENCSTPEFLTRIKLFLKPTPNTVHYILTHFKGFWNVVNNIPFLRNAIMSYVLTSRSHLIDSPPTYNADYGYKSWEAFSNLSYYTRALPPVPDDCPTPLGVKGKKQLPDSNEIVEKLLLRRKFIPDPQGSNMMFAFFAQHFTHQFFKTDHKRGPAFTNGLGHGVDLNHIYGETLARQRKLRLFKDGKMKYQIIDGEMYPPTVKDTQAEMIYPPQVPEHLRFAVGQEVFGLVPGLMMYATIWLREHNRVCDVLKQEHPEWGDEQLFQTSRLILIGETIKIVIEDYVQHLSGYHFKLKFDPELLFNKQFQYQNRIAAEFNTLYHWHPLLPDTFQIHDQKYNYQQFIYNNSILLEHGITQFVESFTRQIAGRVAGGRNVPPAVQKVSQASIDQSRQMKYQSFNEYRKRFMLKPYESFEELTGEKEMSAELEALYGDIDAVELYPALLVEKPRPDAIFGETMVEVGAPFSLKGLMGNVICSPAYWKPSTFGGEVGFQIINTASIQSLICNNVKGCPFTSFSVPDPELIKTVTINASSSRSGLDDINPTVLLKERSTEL
The data set can be described thus: Inhibition of human recombinant COX-2 by enzyme immunoassay.

For a further data set, the system named is COX-2. The data set can be described thus: Ratio of EC50 for membrane permeabilization to IC50 for human recombinant COX-2.

In ChEMBL document CHEMBL3232851 (Bioorg Med Chem, 2014) one finds EC50, IC50 and calcein release EC50/COX-2 IC50 ratio data, which are given here for seven compounds.

The structures appear in SMILES notation.

On to `Cc1ccc(C2=C(c3ccc(S(N)(=O)=O)cc3)COC2=O)cc1`, for which the concentration for a half-maximal effect (EC50) in data set [1] is 24 µM. Also, the half-maximal inhibitory concentration (IC50) in data set [2] worked out at 385 µM; in data set [3], 0.11 µM. Further, the calcein release EC50/COX-2 IC50 ratio in the data set with COX-2 is 0.22.
The corresponding values for `Cc1ccc(C2=C(c3ccc(S(C)(=O)=O)cc3)COC2=O)cc1` are 6230 µM, above 500 µM, 0.3 µM and 20.8.
Take `NS(=O)(=O)c1ccc(C2=C(c3ccccc3)C(=O)OC2)cc1`: the EC50 in data set [1] is 480 µM.
On to `Cc1ccc(-c2cc(C(F)(F)F)nn2-c2ccc(S(C)(=O)=O)cc2)cc1`, for which the EC50 in data set [1] was 1440 µM. Also, the half-maximal inhibitory concentration (IC50) was above 500 µM in data set [2] and 0.13 µM in data set [3]. For the same compound, the calcein release EC50/COX-2 IC50 ratio in the data set on COX-2 was 11.1.
The like results for `CS(=O)(=O)c1ccc(-n2nc(C(F)(F)F)cc2-c2ccccc2)cc1` were, in that order, 1300 µM, above 500 µM, 6.84 µM and 0.19.
In the case of `CS(=O)(=O)c1ccc(C2=C(c3ccccc3)C(=O)OC2)cc1` [ROFECOXIB], in data set [1], the EC50 was 12600 µM.
Still for that read-out and setting: under `Cc1ccc(-c2cc(C(F)(F)F)nn2-c2ccc(S(N)(=O)=O)cc2)cc1` [CELECOXIB] stands 50 µM.
